Earlier results on 1 molecule are cited in patent US12690594B2, “Apparatus and methods for dissolving carbon dioxide in water” (ECO-OXYGEN TECHNOLOGIES, LLC, priority 2023, dated 2026).

The series concerns dreissenid mussel. The settings on record: laboratory and field studies; no concentration or exposure time printed.

In the case of `O=C=O` [carbon dioxide], the mortality entry was “successfully cause mortality”; the “rate of veliger byssogenesis (settlement and colonization)” value is “reduction in the rate of veliger byssogenesis”.
